Assay results: US12071426B2, “IRE1 small molecule inhibitors” (Cornell University, priority 2018, dated 2024)

Experiments:
[1] = Microsome stability assay; type: in vitro ADME; settings: liver microsomes, 1 μM, 37° C., 0.5 mg/ml microsomal protein
Protocol: The formic acid salt of a compound from Table 1 is tested under the microsome stability assay outlined below. Test compounds are incubated at 37° C. with liver microsomes (pooled from multiple donors) at 1 μM in the presence of a NADPH regenerating system at 0.5 mg/ml microsomal protein. Positive controls included Testosterone (3A4 substrate), Propafenone (2D6) and Diclofenac (2C9), which are incubated with microsomes in the presence of an NADPH regenerating system. At time points (0, 5, 10, 20, 30 and 60 minutes), samples are removed and immediately mixed with cold acetonitrile containing internal standard (IS). Test compounds incubated with microsomes without the NADPH regenerating system for 60 min is also included. A single point for each test condition (n=1) is obtained, and samples are analyzed by LC/MS/MS. Disappearance of the test compound is assessed based on peak area ratios of analyte/IS (no standard curve). […] Compound 1 was tested and had 45% or more of parent compound remaining after a 60 minute incubation.

IRE1a [2] = target: T1, IRE1a (Homo sapiens, UniProt O75460); assay: IRE1a Endoribonuclease Nanoluciferase Assay (XBP1 luciferase reporter in 293T cells); type: cell-based; parameters: endogenous in cells; host or cells: 293T cells; settings: 293T cells transfected with XBP1 luciferase reporter plasmid, ER stressors +/- inhibitors
T1 sequence (O75460 19-977): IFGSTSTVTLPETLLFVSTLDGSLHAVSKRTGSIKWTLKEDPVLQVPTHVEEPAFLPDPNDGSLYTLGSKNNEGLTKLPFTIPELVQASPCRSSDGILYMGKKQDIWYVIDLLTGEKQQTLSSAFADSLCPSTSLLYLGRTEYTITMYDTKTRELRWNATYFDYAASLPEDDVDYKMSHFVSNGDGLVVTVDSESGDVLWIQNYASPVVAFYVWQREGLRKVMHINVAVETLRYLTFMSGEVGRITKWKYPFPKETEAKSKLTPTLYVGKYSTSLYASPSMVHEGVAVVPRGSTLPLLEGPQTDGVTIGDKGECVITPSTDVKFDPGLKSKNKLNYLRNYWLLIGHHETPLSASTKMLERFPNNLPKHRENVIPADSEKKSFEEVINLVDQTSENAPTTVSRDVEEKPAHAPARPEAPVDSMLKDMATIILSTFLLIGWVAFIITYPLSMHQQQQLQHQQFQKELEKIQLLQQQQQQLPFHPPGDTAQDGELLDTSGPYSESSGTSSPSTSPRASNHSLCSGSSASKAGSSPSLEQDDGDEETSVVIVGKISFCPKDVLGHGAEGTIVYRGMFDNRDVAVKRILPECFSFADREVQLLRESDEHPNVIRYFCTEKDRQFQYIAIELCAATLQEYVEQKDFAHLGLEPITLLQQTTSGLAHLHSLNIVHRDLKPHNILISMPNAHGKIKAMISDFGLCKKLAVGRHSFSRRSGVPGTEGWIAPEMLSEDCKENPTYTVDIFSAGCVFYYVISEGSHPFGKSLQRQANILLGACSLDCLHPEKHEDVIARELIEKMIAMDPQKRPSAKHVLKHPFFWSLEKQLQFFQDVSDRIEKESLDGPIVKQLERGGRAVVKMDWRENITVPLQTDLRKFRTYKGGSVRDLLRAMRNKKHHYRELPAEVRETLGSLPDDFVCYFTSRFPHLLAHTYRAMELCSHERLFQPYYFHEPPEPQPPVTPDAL
Protocol: Compounds disclosed herein were assessed for disruption of IRE1 signaling using a IRE1a Endoribonuclease Nanoluciferase Assay. Briefly, 2.5×10^6 293T cells were seeded in a 10 cm^2 tissue culture plate. About 24 hours later, the cells were transfected with Effectene. In a 15 mL tube, the following was added: 2 ug XBP1 luciferase reporter plasmid (PGK-Luc2-P2A-XBP1u-Nanoluciferase-PEST); 300 ul EC buffer; and 16 ul Enhancer, followed by incubation at room temp for 5 minutes. Next, 60 ul Effectene (Qiagen 301427) was added, followed by incubation at room temperature for 10 minutes. 2.6 mL cDMEM media was added. Old media was aspirated from the cells, followed by addition of 7 mL fresh media. Full transfection mixture was added dropwise to cells. Cells were incubated for 6 hours, followed by trypsinization, centrifugation and resuspension in 11 mL fresh cDMEM media. 100 uL of cells were plated per a well in a 96 well plate. A day later, ER stressors of choice +/− inhibitors were added. To harvest, media was aspirated from cells completely, then 50 uL 1× passive lysis buffer (Promega: E1941) was added per well and put on shaker (300 rpm) for 30 minutes at room temperature. […] Plates were read on luminometer, 1000 ms integration time per well. […] Plates were read on luminometer, 1000 ms second integration time per well. […]

IRE1a [3] = target: T1, IRE1a; assay: In vitro FRET assay (XBP1 RNA probe cleavage); type: biochemical; settings: SignalChem IRE1a protein 2 nM, fluorescence 485/515 nm
Protocol: In vitro FRET assay was performed to evaluate the ability of select compounds to inhibit IRE1, the results of which are summarized in Table 3. To perform the in vitro FRET assay, 1× complete assay buffer (CAB; […], 50 mM sodium citrate pH 7.15, 1 mM magnesium acetate, 0.02% tween 20) was used to dilute SignalChem IRE1a protein to a final concentration of 2 nM. Selected compounds were serially diluted with DMSO in a non-binding black 384-well plate for a total of 15 ul in each well. 2 ul of the serially diluted compound or DMSO control were then added to new wells containing 98 ul of 1× CAB, for a total volume of 100 ul, 10 ul of which were then transferred to wells of a new plate. 5 ul of the diluted IRE1a was then added to each well. 5 ul of a […] XBP1 RNA probe was then added to each well. Fluorescence was then read over 30 minutes in kinetic mode (485/515 nm).
Two RNA probes were used, XBP1 wildtype (SEQ ID NO: 2) which is able to be spliced by active IRE1a or XBP1 mutant (SEQ ID NO: 3) which is unable to be spliced. Each probe contained a 5′ 6-FAM modification and a 3′ IOWA Black FQ modification.
A second FRET assay was performed to assess ATP-mediated inhibition. In this case, compounds and IRE1a were prepared and combined as discussed above, with the addition of ATP up to 1 mM final concentration. […] Plates were then read over 30 minutes in kinetic mode (485/515 nm).

Structure (SMILES) | parent compound remaining after a 60 minute incubation [1] [%] | EC50 (IRE1a [2]) [nM] | IC50 (IRE1a [3]) [nM]
CCc1cc(-c2ccc(NS(=O)(=O)c3cnccc3Cl)nc2C)cc2cnc(N[C@H]3CC[C@H](N(C)C)CC3)nc12 [Compound 1, 4-chloro-N-(5-(2-(((1r,4r)-4-(dimethylamino)cyclohexyl)-amino)-8-ethylquinazolin-6-yl)-6-methylpyridin-2-yl)-pyridine-3-sulfonamide] | ≥ 45 | ≤ 5 | ≤ 5
CCc1cc(-c2ccc(NS(=O)(=O)c3ccccc3Cl)nc2C)nc2cnc(N[C@H]3CC[C@H](N(C)C)CC3)nc12 [Compound 2, 2-chloro-N-(5-(2-(((1r,4r)-4-(dimethylamino)cyclohexyl)-amino)-8-ethylpyrido[3,2-d]-pyrimidin-6-yl)-6-methyl-pyridin-2-yl)benzenesulfon-amide] | – | ≤ 5 | ≤ 5
